Reference: article PMC5215716, “A Target-Based Whole Cell Screen Approach To Identify Potential Inhibitors of Mycobacterium tuberculosis Signal Peptidase” (ACS Infectious Diseases, 2016)
In brackets after ≈: the same amount, converted by molar mass.

How the values were obtained:
[1] = tested on: M. tuberculosis strain SPAM13C (LepB-UE); assay: microbe, parasite or virus in culture; format: cell-based, Mycobacterium tuberculosis; details: for MIC: Mycobacterium tuberculosis, 120 h, read-out: LepB-UE MIC; for MIC / LepB-UE MIC: M. tuberculosis strain SPAM13C, OD590 after 5 days at 37 °C, average ± SD of at least two experiments, b = single value; for Change in potency against LepB-UE compared to compound 1: decrease in potency relative to compound 1
[2] = tested on: wild-type (wt) M. tuberculosis strain; assay: microbe, parasite or virus in culture; format: cell-based, Mycobacterium tuberculosis; details: […], OD590 after 5 days at 37 °C, average ± SD of at least two experiments, b = single value; for MIC: Mycobacterium tuberculosis, 120 h, read-out: WT MIC
in vitro = format: cell-based, African green monkey; details: African green monkey
Method: (§1) Cytotoxicity against African green monkey adult kidney cell (Vero cells) was determined as previously described using CellTiter-Glo reagent.[44] The concentration causing 50% growth inhibition (IC50) was calculated by fitting the inhibition curves using the Levenberg–Marquardt algorithm.

Vero cells = assay: in vitro; format: cell-based, African green monkey; details: relative to compound 16
Method: as §1

LepB = target: T1, LepB (Mycobacterium tuberculosis, UniProt P9WKA1); assay: LepB membrane assay (fluorogenic signal peptide cleavage by cell membrane fraction); format: biochemical; details: M. tuberculosis H37Rv cell membrane fraction, 2 μM peptide substrate, 4 h at 37 °C
T1 construct: we used purified membrane fractions to develop an in vitro assay for signal peptide cleavage; host or cells: γ-irradiated whole M. tuberculosis H37Rv; Triton X-114 membrane fraction
T1 sequence (P9WKA1 1-294): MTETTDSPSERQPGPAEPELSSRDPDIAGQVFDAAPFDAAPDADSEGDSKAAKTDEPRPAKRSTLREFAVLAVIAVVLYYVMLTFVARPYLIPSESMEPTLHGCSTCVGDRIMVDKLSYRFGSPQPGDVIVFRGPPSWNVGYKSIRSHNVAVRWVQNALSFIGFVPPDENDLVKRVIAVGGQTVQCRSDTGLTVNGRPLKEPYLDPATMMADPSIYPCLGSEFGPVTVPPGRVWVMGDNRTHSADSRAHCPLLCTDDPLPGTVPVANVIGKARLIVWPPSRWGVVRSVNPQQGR

| Compound | MIC [1] | MIC [2] | CC50 (in vitro) | Decrease in selectivity compared to 16 (Vero cells) | Change in potency against LepB-UE compared to compound 1 [1] | IC50 (LepB) | LepB-UE MIC [1] | WT MIC [2] |
| --- | --- | --- | --- | --- | --- | --- | --- | --- |
| COc1ccc([N+](=O)[O-])cc1/C=N/NC(=N)c1ccccn1 [Compound 33] | > 200 µM | > 200 µM | > 100 µM | 15 fold |  |  |  |  |
| C/C(=N\Nc1nnc2c(n1)[nH]c1ccc(C)cc12)c1ccccn1 [Compound 28] | 4.8 ± 2.4 µM (≈ 1.52 µg/mL) | > 200 µM | 1.2 µM |  | activity was comparable to that of 1 | 87 µM |  |  |
| C/C(=N\NC(=O)C1CCCN(S(=O)(=O)c2ccccc2)C1)c1ccccn1 (stereo not drawn) [Compound 38] | 3.5 to 15 µM (≈ 1.35 to 5.8 µg/mL) | 17 ± 5 µM (≈ 6.57 µg/mL) | 9.5 µM |  |  | 180 µM | 4.9 ± 0.2 µM |  |
| Oc1ccc(/C=N/Nc2ccc3ccccc3n2)c(O)c1 [Compound 8] | 3.6 ± 1.1 µM (≈ 1.01 µg/mL) | > 200 µM | 6.7 µM |  |  | > 200 µM |  |  |
| Cc1cc(C)nc(NNC(=O)c2ccccn2)n1 [Compound 57] | 3.5 to 15 µM (≈ 0.851 to 3.65 µg/mL) | 25 µM (≈ 6.08 µg/mL) | 32 µM |  | activity similar to that of 1 | 64 µM | 3.9 ± 1.3 µM | 25 ± 4 µM |
| COc1ccc(Nc2nc(NCc3ccco3)nc(N/N=C/c3ccccc3O)n2)cc1 [Compound 10] | 5.4 ± 2.6 µM (≈ 2.33 µg/mL) | > 200 µM | 4.3 µM |  |  | > 200 µM |  |  |
| COc1ccc(CC(=O)N/N=C(\C)c2ccccn2)cc1OC [Compound 36] | 26 ± 1 µM (≈ 8.15 µg/mL) | 53 ± 2 µM (≈ 16.6 µg/mL) | 12 µM |  |  | > 200 µM |  |  |
| Oc1ccccc1/C=N/Nc1nc(-c2ccccc2)cs1 [Compound 2] | 9.3 ± 3.2 µM (≈ 2.75 µg/mL) | 43 ± 26 µM (≈ 12.7 µg/mL) | 13 µM |  |  | > 200 µM |  |  |
| N=C(N/N=C/c1cccc([N+](=O)[O-])c1)c1ccccn1 [Compound 34] | 106 µM (≈ 28.5 µg/mL) | > 200 µM | > 100 µM | 15 fold |  |  |  |  |
| Cc1nc2ccccc2nc1N/N=C/c1ccc(O)c(C)c1O [Compound 6] | 3.8 ± 1.3 µM (≈ 1.17 µg/mL) | 26 ± 12 µM (≈ 8.02 µg/mL) | 8.7 µM |  |  | > 200 µM |  |  |
| O=[N+]([O-])c1ccc(O)c(/C=N/Nc2ccccn2)c1 [Compound 3] | 4.7 µM (≈ 1.21 µg/mL) | 11 µM (≈ 2.84 µg/mL) | 2.9 µM |  |  | 12 µM |  |  |
| O=C(N/N=C/c1cccc2cccnc12)c1ccn(Cc2ccc(Cl)cc2Cl)n1 [Compound 13] | 3.5 to 15 µM (≈ 1.49 to 6.36 µg/mL) | 18 ± 5 µM (≈ 7.64 µg/mL) | 21 µM |  |  | > 200 µM | 4.7 ± 0.6 µM |  |
